# PubChem BioAssay (NCI)
#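 How tested: cells in 96-well plates exposed to compound for 48 hours at five concentrations. GI50 marks 50% less growth. TGI denotes the concentration required for complete inhibition of growth.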
# How the values were obtained:
# Assay in all cases: NCI tumour cell line growth inhibition, 48 h
# [1] = system: HOP-92 NSCLC
# [2] = system: K-562 leukemia
# [3] = system: NCI-H460 lung
# [4] = system: PC-3 prostate
# [5] = system: UACC-257 melanoma
# [6] = system: RPMI-8226 leukemia
# [7] = system: EKVX NSCLC
# [8] = system: KM12 colon
# [9] = system: SK-MEL-2 melanoma
# [10] = system: NCI/ADR-RES ovarian
# [11] = system: 786-0 renal
# [12] = system: HT29 colon
# [13] = system: U251 CNS
# [14] = system: HOP-62 NSCLC
# [15] = system: RXF 393 renal
# [16] = system: BT-549 breast
# [17] = system: SW-620 colon
# [18] = system: OVCAR-8 ovarian
# [19] = system: SF-268 CNS
# [20] = system: NCI-H23 lung
# [21] = system: SNB-75 CNS
# [22] = system: NCI-H522 lung
# [23] = system: SK-MEL-5 melanoma
# [24] = system: A549 NSCLC
# [25] = system: SNB-19 CNS
# [26] = system: SK-MEL-28 melanoma
# [27] = system: CAKI-1 renal
# [28] = system: OVCAR-4 ovarian
# [29] = system: SF-295 CNS
# [30] = system: T-47D breast
# [31] = system: SK-OV-3 ovarian
# [32] = system: ACHN renal
# [33] = system: TK-10 renal
# [34] = system: HCT-15 colon
# [35] = system: CCRF-CEM leukemia
# [36] = system: HCC-2998 colon
# [37] = system: SF-539 CNS
# [38] = system: UACC-62 melanoma
# [39] = system: A498 renal
# [40] = system: HL-60(TB) leukemia
# [41] = system: M14 melanoma
# [42] = system: LOX IMVI melanoma
# [43] = system: MDA-MB-435
# [44] = system: NCI-H226 lung
# [45] = system: HCT-116 colon
# [46] = system: OVCAR-3 ovarian
# [47] = system: OVCAR-5 ovarian
# [48] = system: MDA-MB-231 breast
# [49] = system: DU-145 prostate
# [50] = system: SN12C renal
# [51] = system: UO-31 renal
# [52] = system: COLO 205 colon
# [53] = system: MCF7 breast
smiles,measurement,setting,value
COc1cc(OC)c2c(=O)cc(-c3ccccc3OCc3ccccc3)oc2c1OC,GI50,[1],2.63 µM
same,TGI,[1],18.6 µM
same,GI50,[2],> 100 µM
same,TGI,[2],> 100 µM
same,GI50,[3],5.42 µM
same,TGI,[3],> 100 µM
same,GI50,[4],3.34 µM
same,TGI,[4],32.5 µM
same,GI50,[5],6.05 µM
same,TGI,[5],82.1 µM
same,GI50,[6],2.83 µM
same,TGI,[6],> 100 µM
same,GI50,[7],5.54 µM
same,TGI,[7],91.2 µM
same,GI50,[8],3.25 µM
same,TGI,[8],16.2 µM
same,GI50,[9],> 100 µM
same,TGI,[9],> 100 µM
same,GI50,[10],2.96 µM
same,TGI,[10],18.6 µM
same,GI50,[11],5.49 µM
same,TGI,[11],56.4 µM
same,GI50,[12],28.9 µM
same,TGI,[12],> 100 µM
same,GI50,[13],9.59 µM
same,TGI,[13],> 100 µM
same,GI50,[14],10.7 µM
same,TGI,[14],44.4 µM
same,GI50,[15],> 100 µM
same,TGI,[15],> 100 µM
same,GI50,[16],3.76 µM
same,TGI,[16],24.6 µM
same,GI50,[17],8.06 µM
same,TGI,[17],> 100 µM
same,GI50,[18],> 100 µM
same,TGI,[18],> 100 µM
same,GI50,[19],18.7 µM
same,TGI,[19],73.7 µM
same,GI50,[20],5.94 µM
same,TGI,[20],23.4 µM
same,GI50,[21],61.8 µM
same,TGI,[21],> 100 µM
same,GI50,[22],50.7 µM
same,TGI,[22],> 100 µM
same,GI50,[23],1.84 µM
same,TGI,[23],4.33 µM
same,GI50,[24],63.5 µM
same,TGI,[24],> 100 µM
same,GI50,[25],41.7 µM
same,TGI,[25],> 100 µM
same,GI50,[26],12.7 µM
same,TGI,[26],46.5 µM
same,GI50,[27],3.21 µM
same,TGI,[27],24.2 µM
same,GI50,[28],6.32 µM
same,TGI,[28],> 100 µM
same,GI50,[29],4.65 µM
same,TGI,[29],26.8 µM
same,GI50,[30],18.7 µM
same,TGI,[30],> 100 µM
same,GI50,[31],98 µM
same,TGI,[31],> 100 µM
same,GI50,[32],6.19 µM
same,TGI,[32],> 100 µM
same,GI50,[33],6.56 µM
same,TGI,[33],34.9 µM
same,GI50,[34],16.2 µM
same,TGI,[34],> 100 µM
same,GI50,[35],3.18 µM
same,TGI,[35],67.7 µM
same,GI50,[36],2.39 µM
same,TGI,[36],7.54 µM
same,GI50,[37],12.4 µM
same,TGI,[37],40 µM
same,GI50,[38],4.14 µM
same,TGI,[38],17.7 µM
same,GI50,[39],9.62 µM
same,TGI,[39],69.9 µM
same,GI50,[40],> 100 µM
same,TGI,[40],> 100 µM
same,GI50,[41],7.22 µM
same,TGI,[41],23.1 µM
same,GI50,[42],10.2 µM
same,TGI,[42],> 100 µM
same,GI50,[43],2.68 µM
same,TGI,[43],7.01 µM
same,GI50,[44],6.25 µM
same,TGI,[44],44 µM
same,GI50,[45],9.22 µM
same,TGI,[45],50.5 µM
same,GI50,[46],4.15 µM
same,TGI,[46],16.5 µM
same,GI50,[47],18 µM
same,TGI,[47],84.3 µM
same,GI50,[48],5.6 µM
same,TGI,[48],71.8 µM
same,GI50,[49],18.5 µM
same,TGI,[49],> 100 µM
same,GI50,[50],20.4 µM
same,TGI,[50],> 100 µM
same,GI50,[51],> 100 µM
same,TGI,[51],> 100 µM
CN(C)c1ccc(/C=c2/c3ccccc3n3c2cc(/C=C/c2ccccc2)[n+]3C)cc1,TGI,[2],> 100 µM
same,TGI,[10],> 50.6 µM
same,TGI,[14],1.16 µM
same,TGI,[52],0.315 µM
same,TGI,[23],0.272 µM
same,TGI,[27],51.2 µM
same,TGI,[28],1.86 µM
same,TGI,[53],0.591 µM
same,TGI,[29],0.944 µM
same,TGI,[30],0.123 µM
same,TGI,[31],1.14 µM
same,TGI,[32],1.22 µM
same,TGI,[33],3.77 µM
same,TGI,[34],3.49 µM
same,TGI,[35],0.0821 µM
same,TGI,[36],1.08 µM
same,TGI,[37],0.132 µM
same,TGI,[46],0.795 µM
same,TGI,[49],1.37 µM
